Reference: patent US12616672B2, “Methods for assessing risk of cardiovascular disease and methods and compounds for use in treating or preventing cardiovascular disease” (Queen Mary University of London, priority 2017, dated 2026)
Values joined by “and” are separate entries in the source; they are usually repeats but may differ in a detail not shown here. Equal values may be shown once.

Assays:
Apo E^−/− mice = assay: Apo E−/− mice given RvD5n-3 DPA: lipid mediator profiling of descending aorta; type: in vivo, mouse
Protocol: Plasma was obtained from peripheral blood of healthy volunteers and patients following centrifugation at 1500×g for 10 min at room temperature. Descending aortas were weighed, placed in ice-cold methanol and homogenized using a glass dounce.
All samples for LC-MS-MS-based profiling were extracted using solid-phase extraction columns as described in Dalli et al. 2013 and Rathod et al. 2017, the contents of which are incorporated herein by reference.
Prior to sample extraction, deuterated internal standards, representing each region in the chromatographic analysis (500 pg each) were added to facilitate quantification in 4V of cold methanol.
Samples were kept at −20° C. for a minimum of 45 min to allow protein precipitation.
Supernatants were subjected to solid phase extraction, methyl formate fraction collected, brought to dryness and suspended in phase (methanol/water, 1:1, vol/vol) for injection on a Shimadzu LC-20AD HPLC and a Shimadzu SIL-20AC autoinjector, paired with a triple quadrupole mass spectrometer with or without a linear ion trap.
An Agilent Poroshell 120 EC-C18 column (100 mm×4.6 mm×2.7 μm) was kept at 50° C. and mediators eluted using a mobile phase consisting of methanol-water-acetic acid of 20:80:0.01 (vol/vol/vol) that was ramped to 50:50:0.01 (vol/vol/vol) over 0.5 min and then to 80:20:0.01 (vol/vol/vol) from 2 min to 11 min, maintained till 14.5 min and then rapidly ramped to 98:2:0.01 (vol/vol/vol) for the next 0.1 min. This was subsequently maintained at 98:2:0.01 (vol/vol/vol) for 5.4 min, and the flow rate was maintained at 0.5 ml/min. Mass spectrometer was operated using a multiple reaction monitoring method as in Walker M E et al. 13-Series resolvins mediate the leukocyte-platelet actions of atorvastatin and pravastatin in inflammatory arthritis. FASEB J. 2017 August; 31(8):3636-3648, the contents of which are incorporated herein by reference.
Each LM was identified using established criteria including matching retention time to synthetic and authentic materials and at least six diagnostic ions (Walker M E et al. 2017. ibid.)
Calibration curves were obtained for each using synthetic compound mixtures at 0.78, 1.56, 3.12, 6.25, 12.5, 25, 50, 100, and 200 pg that gave linear calibration curves with an r^2 values of 0.98-0.99.
Mice (male and female) were fed a western diet for 6 weeks from 4 weeks of age and kept of a 12 h light dark cycle. At 8 weeks of age, mice were given RvD5n-3 DPA (100 ng/mouse; i.v.) or vehicle on alternate days for a 2-week period. Mice were culled, aortic arches were collected and stained using oil-red O as in Khambata R S et al. Anti-inflammatory actions of inorganic nitrate stabilize the atherosclerotic plaque. Proc Natt Acad Sci USA. 2017; 114(4):E550-E559, the contents of which are incorporated herein by reference. Staining intensity was determined using image processing software and expressed as relative units per mm^2. The descending aorta was collected, placed in ice-cold methanol and lipid mediators identified and quantified as described above.

[1] = system: peripheral blood leukocytes and platelets from CVD patients; assay: CVD patient whole blood incubated with RvD2n-3 DPA or RvD5n-3 DPA for 45 min, flow cytometry; type: cell-based, human; conditions: no PAF
Protocol: FIG. 8: RvD2n-3 DPA and RvD5n-3 DPA reduce leukocyte activation in peripheral blood from CVD patients. Peripheral blood from patients diagnosed with cardiovascular disease (CVD) was collected at 9:00 h. […] Expression of CD62P on (A) neutrophils (B) monocytes and CD11b on (C) neutrophils and (D) monocytes was investigated using flow cytometry and fluorescently labelled antibodies.
Whole blood was incubated with lineage-specific markers for 45 min (4° C., in DPBS containing 0.02% BSA). The following anti-human antibodies were used: VioBlue-anti-CD41, PE-Cy5-anti-CD62P, Brilliant Violet 711-anti-CD11b, APC-Cy7-anti-CD16, Alexa Fluor 647-anti-CD14. After staining, red blood cells were lysed using Whole Blood Lysing Reagent Kit, according to the manufacturer's instructions. Data was collected using a flow cytometer and analysis was conducted using appropriate software.
In select experiments platelet adhesion molecule expression was assessed. Here platelets were incubated with fluorescently labelled mouse anti-human VioBlue-anti-CD41, PE-Cy5-anti-CD62P, PerCP/Cy5.5-anti-CD63 and FITC-ant-CD42b for 30 min at 4° C. Cells were then washed and fluorescence, staining evaluated using LSRFortessa cell analyser (BD Biosciences) and analysed using FlowJo software (Tree Star Inc., V10).

[2] = 100 ng/mouse i.v., alternate days, 2 weeks, vs vehicle
[3] = Apo E−/− mice, western diet, RvD5n-3 DPA 100 ng/mouse i.v. alternate days 2 weeks, descending aorta, mean, n = 4
[4] = ApoE−/− mice, WD 6 weeks, 100 ng/mouse i.v. alternative days, descending aorta, mean ± s.e.m., n = 4
[5] = ApoE−/− mice, WD 6 weeks, 100 ng/mouse i.v. alternative days, descending aorta, n = 4
[6] = CVD patient whole blood, 0.1, 1, 10 nM, 45 min
[7] = CVD patient whole blood, 45 min

CC/C=C\C[C@H](O)/C=C/C=C\C/C=C\C=C\[C@@H](O)CCCCCC(=O)O [RvD5n-3 DPA, 7,17-trihydroxy-8E,10,13,15E,19Z-docosapentaenoic acid]
aortic 15-epi-LXA4 (Apo E^−/− mice; [2]): significant upregulation
aortic MaR1 (Apo E^−/− mice; [2]): significant upregulation
aortic prostanoids (Apo E^−/− mice; [2]): significant reductions
reduction of aortic TxB2 concentrations (Apo E^−/− mice; [2]): ~35% and > 35%
PGD2 concentration in aortic tissue (Apo E^−/− mice; [3]): 15.0 pg/10 mg tissue
PGE2 concentration in aortic tissue (Apo E^−/− mice; [3]): 16.2 pg/10 mg tissue
PGF2a concentration in aortic tissue (Apo E^−/− mice; [3]): 9.1 pg/10 mg tissue
TxB2 concentration in aortic tissue (Apo E^−/− mice; Apo E−/− mice, western diet, RvD5n-3 DPA 100 ng/mouse i.v. alternate days 2 weeks, descending aorta, mean, n = 4, p < 0.05 vs Vehicle): 30.7 pg/10 mg tissue
4,14-diHDHA in aorta (Apo E^−/− mice; [4]): 4.9 ± 2.0 pg/10 mg aorta
5S,12S-diHETE in aorta (Apo E^−/− mice; [4]): 0.6 ± 0.2 pg/10 mg aorta
5S,15S-diHETE in aorta (Apo E^−/− mice; [4]): 51.9 ± 15.3 pg/10 mg aorta
7S,14S-diHDHA in aorta (Apo E^−/− mice; [4]): 1.8 ± 0.3 pg/10 mg aorta
10S,17S-diHDHA in aorta (Apo E^−/− mice; [4]): 66.0 ± 35.4 pg/10 mg aorta
15-epi-LXA4 in aorta (Apo E^−/− mice; [4]): 9.6 ± 1.9 pg/10 mg aorta
15-epi-LXB4 in aorta (Apo E^−/− mice; [4]): 1.4 ± 0.5 pg/10 mg aorta
17R-PD1 in aorta (Apo E^−/− mice; [4]): 0.3 ± 0.2 pg/10 mg aorta
17R-RvD1 in aorta (Apo E^−/− mice; [4]): 1.6 ± 0.9 pg/10 mg aorta
17R-RvD3 in aorta (Apo E^−/− mice; [4]): 1.3 ± 0.3 pg/10 mg aorta
22-OH-PD1 in aorta (Apo E^−/− mice; [4]): 6.0 ± 1.0 pg/10 mg aorta
LTB4 in aorta (Apo E^−/− mice; [4]): 1.7 ± 0.3 pg/10 mg aorta
LXA4 in aorta (Apo E^−/− mice; [4]): 0.3 ± 0.0 pg/10 mg aorta
LXB4 in aorta (Apo E^−/− mice; [4]): 0.6 ± 0.4 pg/10 mg aorta
MaR1 in aorta (Apo E^−/− mice; [4]): 35.4 ± 22.7 pg/10 mg aorta
PD1 in aorta (Apo E^−/− mice; [4]): 2.6 ± 0.7 pg/10 mg aorta
PD1n-3 DPA in aorta (Apo E^−/− mice; [4]): 0.0 ± 0.0 pg/10 mg aorta
PGD2 in aorta (Apo E^−/− mice; [4]): 14.9 ± 3.5 pg/10 mg aorta
PGE2 in aorta (Apo E^−/− mice; [4]): 20.5 ± 4.5 pg/10 mg aorta
PGF2α in aorta (Apo E^−/− mice; [4]): 10.0 ± 1.7 pg/10 mg aorta
RvD1 in aorta (Apo E^−/− mice; [4]): 1.7 ± 0.9 pg/10 mg aorta
RvD1n-3 DPA in aorta (Apo E^−/− mice; [4]): 0.1 ± 0.1 pg/10 mg aorta
RvD2 in aorta (Apo E^−/− mice; [4]): 0.4 ± 0.4 pg/10 mg aorta
RvD2n-3 DPA in aorta (Apo E^−/− mice; [4]): 0.1 ± 0.1 pg/10 mg aorta
RvD3 in aorta (Apo E^−/− mice; [4]): 2.4 ± 0.6 pg/10 mg aorta
RvD5 in aorta (Apo E^−/− mice; [4]): 0.4 ± 0.2 pg/10 mg aorta
RvD5n-3 DPA in aorta (Apo E^−/− mice; [4]): 0.1 ± 0.1 pg/10 mg aorta
RvD6 in aorta (Apo E^−/− mice; [4]): 1.5 ± 1.1 pg/10 mg aorta
RvE2 in aorta (Apo E^−/− mice; [4]): 0.1 ± 0.1 pg/10 mg aorta
RvE3 in aorta (Apo E^−/− mice; [4]): 0.7 ± 0.1 pg/10 mg aorta
RvEl in aorta (Apo E^−/− mice; [4]): 1.8 ± 0.5 pg/10 mg aorta
TxB2 in aorta (Apo E^−/− mice; [4]): 34.5 ± 4.1 pg/10 mg aorta
20-OH-LTB4 in aorta (Apo E^−/− mice; [5]): — (Below limits of detection)
MaR1n-3 DPA in aorta (Apo E^−/− mice; [5]): — (Below limits of detection)
RvD4 in aorta (Apo E^−/− mice; [5]): — (Below limits of detection)
RvT1 in aorta (Apo E^−/− mice; [5]): — (Below limits of detection)
RvT2 in aorta (Apo E^−/− mice; [5]): — (Below limits of detection)
RvT3 in aorta (Apo E^−/− mice; [5]): — (Below limits of detection)
RvT4 in aorta (Apo E^−/− mice; [5]): — (Below limits of detection)
monocyte CD11b expression [1, 6]: significantly reduced
neutrophil CD11b expression [1, 6]: significantly reduced
platelet-monocyte aggregates [1, 6]: reduction
platelet-neutrophil aggregates [1, 6]: reduction
platelet CD62P expression [1, 7]: downregulated
platelet CD63 expression [1, 7]: downregulated
potency in reducing neutrophil-platelet and monocyte-platelet aggregates, compared ([1]; CVD patient whole blood): higher potency than RvD2n-3 DPA
